# Patent publication US20050054585A1, “Agent controlling the production of osteoclast formation regulator and method of screening substance capable of controlling the production of osteoclast formation regulator” (priority 2001, published 2005)
# Key:
# [1] = system: OPG production in MG-63 cells, ATCC CRL 1427; experiment: Screening for control of the production of OPG in MG-63 cells; type: cell-based, human; conditions: saccharide solutions Nos. 1 to 7, 2-day culture
# [2] = system: OPG; experiment: Administration test in healthy volunteers, blood OPG by ELISA; type: in vivo, human; conditions: for production level of OPG in blood: 100 ml of 10% (w/v) solution orally after fasting, blood at six hours, ELISA
# Method: Eighteen healthy volunteers, aged 35 to 50-years-old, were divided into three groups A, B, and C, consisting of three males and three females in each group. […] As a control solution, 1,000 ml of deionized water were sterilized with a membrane filter. These test and control solutions were stored at about 10° C. in a refrigerator until initiating the test. The volunteers in the groups A to C were allowed to fast, except for water, from 10 p.m. at night just before initiating the test, and 100 ml aliquots of the test solution 1, the test solution 2, and the control solution were administered to the groups A, B, and C, respectively, at 6 a.m. on the next day. Thereafter, all the volunteers were allowed to stay indoors calmly and sampled their blood at six hours after the administrations. The sampled bloods were centrifuged at […] for 10 min and quantified for OPG with “RS000805”, a product code number for ELISA system for assaying OPG commercialized by Funakoshi Co., Ltd., Tokyo. Japan.
# [3] = system: OPG production in FHs 74 Int cells, ATCC CCL 241; experiment: Production of OPG in FHs 74 Int cell culture supernatant, Western Blotting; type: cell-based, human; conditions: 2-day culture with saccharide (1 mg/ml; α,α-trehalose 1, 0.2, 0.04 mg/ml), control without saccharide = 100
# Method: FHs 74 Int cells, ATCC CCL 241, were inoculated to 96-well plates, with D-MEM medium prepared by adding fetal calf serum, commercialized by GIBCO Bethesda Research Laboratories, Bethesda, Md., USA, to the serum-free culture medium shown in Table 1 below to give a final concentration of 10% (v/v), a final cell density of 1.2×10^4 cells/well, and a final volume of 200 μl; and incubated at 37° C. for 48 hours in a 5% CO2 (V/V) incubator. After completion of the culture, the resultant cells were washed thrice (200 μl×3) with the serum-free D-MEM medium in Table 1. […] Two hundred microliters of each of the saccharide solutions of Nos.1 to 7 were placed in each well of the 96-well plates with the cells, and the cells were incubated at 37 C for two days in a 5% CO2 (v/v) incubator. The culture supernatant in each well was sampled and assayed for the production level of OPG by the Western Blotting method as indicated below using a recombinant human OPG commercialized by R & D Systems Inc., MN, USA. In parallel, a cell culture system with no saccharide, as a control group, was provided and cultured, and the supernatant of the cell culture was sampled on day 2 after the initiation of the cell culture and assayed for the production level of OPG similarly as in the test group.
# Fifteen microliters of any of the cell culture supernatants of the test solutions and the control solution, and five microliters of dithiothreitol (DTT) solution for cell treatment were mixed and heated at 99° C. for five minutes. Each of the resulting solutions with heat treatment was developed on SDS-polyacrylamide gel electrophoresis (SDS-PAGE) using multi-gel 4/20 commercialized by Daiichi Pure Chemicals Co., Ltd., Tokyo, Japan; and the gels were transferred to PVDF membranes commercialized by Nihon Millipore Corporation, Tokyo, Japan. The resulting PVDF membranes were blocked with a solution of “BLOCK ACE™”, commercialized by Dainippon Pharmaceutical Co., Ltd., Tokyo, Japan, and contacted with an anti-human OPG antibody as a primary antibody, commercialized by R & D Systems, MN, USA, and an HRP anti-goat IgG antibody, as a secondary antibody, commercialized by Sigma Chemical Co., MO, USA; followed by detecting proteins reacted with these antibodies in accordance with the method described in Experimental Medicine, special edition, titled Handbook for novel recombinant technology, pp. 222-226 (1999). The coloration was effected by using ECL reagent, commercialized by Amersham Pharmacia Biotechnology, IL, USA; exposing “[sequence] ECL™”; and measuring the expression intensity by using “IMAGE MASTER™”, commercialized by Amersham Biosciences, Tokyo, Japan.
# [4] = system: ddy mice; conditions: 15 g/kg body weight, by syringe or intubationally with stomach sonde, observed seven days
# Method: Either of the sterilized saccharide solutions was administered with a syringe or intubationally administered with a stomach sonde to five groups of ddy mice, having 20 to 25 g body weight, consisting of five heads in each group. The mice were observed their conditions for seven days.
Structure (SMILES),production of OPG compared with a control culture system free of saccharide [1],production level of OPG in blood ([2]; healthy volunteers),"complaints of abnormality after administration ([2]; human, in vivo, po)",expression intensity of OPG versus control cell culture system [3],mortality [4],"complaints of abnormality after administration ([2]; healthy volunteers, 100 ml of 10% (w/v) solution orally)"
O=C[C@H](O)[C@@H](O)[C@H](O)[C@H](O)CO [D-glucose],remarkably inhibited the production of OPG,significantly lower production level of OPG than that of the group C with the control solution,no volunteer,lower than that for the control cell culture system,no mouse died,–
OC[C@H]1O[C@@](CO)(O[C@H]2O[C@H](CO)[C@@H](O)[C@H](O)[C@H]2O)[C@@H](O)[C@@H]1O [sucrose],remarkably inhibited the production of OPG,–,–,lower than that for the control cell culture system,no mouse died,–
OC[C@H]1O[C@H](O[C@H]2[C@H](O)[C@@H](O)C(O)O[C@@H]2CO)[C@H](O)[C@@H](O)[C@@H]1O (mixture of isomers) [maltose],remarkably inhibited the production of OPG,–,–,lower than that for the control cell culture system,–,–
"OC[C@H]1O[C@H](O[C@H]2O[C@H](CO)[C@@H](O)[C@H](O)[C@H]2O)[C@H](O)[C@@H](O)[C@@H]1O [α,α-trehalose]",distinctly enhanced the production of OPG,significantly higher than those with the test solution 2 and the control solution,–,higher than that for the control cell culture system,no mouse died,no volunteer
